{"source": "patent US20070059385A1", "about": "“Safe pharmaceutical composition for treating and preventing cancer and method of use” (priority 2005, published 2007)", "key": {"gastric cancer cells": {"system": "gastric cancer cells", "test": "Cellular diversion of gastric cancer cells (NBT)", "type": "cell-based", "protocol": "The gastric cancer cells and normal cells were cultured in PRMI 1640 medium supplement with 10% FCS serum. Other method is similar to example 8."}, "[1]": {"system": "Human leukemia cells (HL-60)", "test": "Apoptosis of human leukemia cells", "type": "cell-based", "protocol": "Human leukemia cells (HL-60) were grown in RPMI Medium 1640 supplemented with 10% (v/v) heat-inactivated FBS (56° C. for 30 min) at 37° C. in a humidified 95% air/5% CO2 atmosphere. Cells were seeded at a level of 2×10^5 cells/ml. Cells were allowed to attain a maximum density of 1.2×10^6 cells/ml before being passed by dilution into fresh medium to a concentration of 2×10^5 cells/ml. […]\nFor evaluation of apoptosis by flow cytometry, cells were fixed and permeabilized in 1% paraformaldehyde and ice-cold 70% ethanol. Digoxigenin-dUTP was incorporated at the 3′OH ends of the fragmented DNA in the presence of terminal deoxynucleotidyltranserase, and the cells were incubated with FITC-labeled anti-digoxigenin-dUTP and with propidium iodide. Green (apoptotic cells) and orange (total DNA) fluorescence were measured with a FACScan flow cytometer and analyzed with LYSIS II and CELLFIT programs. Data were analyzed by Student's t-test. P values were considered significant when <0.05. […]\nApoptosis of HL-60 cells was assessed by changes in cell morphology and by measurement of DNA nicks using the Apop Tag Kkt (Oncor, Gaithersburg, Md.). […] These features make apoptotic cells relatively easy to distinguish from necrotic cells. These changes are detected on cytospin preparations stained with Diff-Quick Stain Set. Apoptotic cells were enumerated in a total of about 300 cells by light microscopy."}, "L615 transplanted tumor": {"system": "L615 transplanted tumor", "test": "Growth of transplanted tumor in mice", "type": "in vivo", "settings": "intraperitoneally, sacrificed on the 12th day", "protocol": "Male mice, weight 20-22 g, were used in the experiment. 1×10^7 tumor cells were injected to mouse and other drugs injected intraperitoneally began second day. All mice were sacrificed on the 12th day, isolated the tumor and weighed and calculated the inhibition rate of tumor weight.\nThe effect of other drugs and HHT on the growth of animal transplanted tumor as illustrated by the Table 6.20 mg/kg of other drugs could inhibit the growth of L615 transplanted tumor."}, "[2]": {"system": "NNK-induced lung tumorigenesis", "test": "NNK-induced lung tumorigenesis", "type": "in vivo", "settings": "mice; drug 20 mg/kg daily by injection; 10 μmol NNK i.p.; pulmonary adenomas after sixteen weeks", "protocol": "Every group had 20 mice. […] For control group, each mouse was gave same volume of physiological saline. Three days later, mice were gave 10 μmol NNK (in 0.1 ml saline) by i.p. injection. Sixteen weeks after these treatments the mice were killed and pulmonary adenomas were counted. The statistical significance of bioassay data was determined by student's test."}, "[3]": {"test": "Toxic dose for mice (LD50)", "type": "in vivo"}, "TA97": {"system": "TA97", "test": "Salmonella mutagenicity assay TA97", "protocol": "(§1) The method for detecting mutagenicity of HHT, with the Salmonella system that detects the reversion of the bacteria from His^− to His^+, is widely used.\n(§2) The bacterial tester strains used for mutagenesis testing are TA97, TA98, TA100 and TA102. Mutagenesis testing method was done as described previously ^[77-88]. In brief, TA97, TA98, TA100 and TA102 were grown in agar gel culture. The petri plats (100×15 mm style) contain 30 ml with 2% glucose. The agar mixture was agitated vigorously and immediately poured into plates of minimal agar. The cultures were incubated at 37° C. in a dark and 5% CO2 in air for 48 hours. After 48 hours the colonies in both test and controls are counted. The presence of a background lawn of bacteria on the histidine-poor soft agar plate was used as an indication that gross toxic effects were absent. Mutagenicity assays were carried out at least in triplicate.\n(§3) The range of spontaneous mutation rates for the individual strains, which were considered to be acceptable, was TA97 (100-170), TA98 (20-40) and TA100 (80-150)."}, "[4]": {"system": "salmonella typhimurium strains TA97, TA98 and TA100", "test": "Salmonella mutagenicity assay, overall conclusion", "settings": "conclusion from Table 14", "protocol": "as §1, §2, §3"}}, "data": [{"compound": "COC(=O)C[C@](O)(CCCC(C)(C)O)C(=O)O[C@@H]1C(OC)=C[C@]23CCCN2CCc2cc4c(cc2[C@H]13)OCO4", "note": "[HHT, Homoharringtonine]", "values": [{"measurement": "NBT (%)", "setting": "gastric cancer cells", "result": "58 ± 8.9", "unit": "%"}, {"measurement": "Apoptosis (%)", "setting": "[1]; HHT 10 ng/ml", "result": "33.8 ± 4.8", "unit": "%"}, {"measurement": "Apoptosis (%)", "setting": "[1]; HHT 50 ng/ml", "result": "42.8 ± 5.2", "unit": "%"}, {"measurement": "Apoptosis (%)", "setting": "[1]; HHT 100 ng/ml", "result": "60.2 ± 8.9", "unit": "%"}, {"measurement": "Apoptosis (%)", "setting": "[1]; HHT 500 ng/ml", "result": "92.0 ± 10.8", "unit": "%"}, {"measurement": "Apoptosis (%)", "setting": "[1]; Table 4, HHT (50 ng/ml) alone or in combination", "result": "42.8 ± 5.2", "unit": "%"}, {"measurement": "Inhibition (%) of transplanted tumor (tumor weight)", "setting": "L615 transplanted tumor", "result": "68 ± 7.2", "unit": "%"}, {"measurement": "Tumor incidence (%)", "setting": "[2]", "result": "35.8 ± 4.5", "unit": "%"}, {"measurement": "mice died", "setting": "[3]; 38 normal mice, 2 mg/kg/day×5, observation period of 5 days", "result": "about 50%"}, {"measurement": "LD50", "setting": "[3]; mouse, in vivo, ip, mice, I.P.", "result": "3.17 ± 0.19", "unit": "mg/kg"}, {"measurement": "Number of His^+ revertants/plate", "setting": "TA97; TA97 +S, 0.1 μg/plate", "result": "145 ± 14", "unit": "revertants/plate"}, {"measurement": "Number of His^+ revertants/plate", "setting": "TA97; TA97 +S, 1 μg/plate", "result": "150 ± 14", "unit": "revertants/plate"}, {"measurement": "Number of His^+ revertants/plate", "setting": "TA97; TA97 +S, 10 μg/plate", "result": "165 ± 16", "unit": "revertants/plate"}, {"measurement": "Number of His^+ revertants/plate", "setting": "TA97; TA97 +S, 100 μg/plate", "result": "160 ± 17", "unit": "revertants/plate"}, {"measurement": "Number of His^+ revertants/plate", "setting": "TA97; TA97 −S, 0.1 μg/plate", "result": "120 ± 10", "unit": "revertants/plate"}, {"measurement": "Number of His^+ revertants/plate", "setting": "TA97; TA97 −S, 1 μg/plate", "result": "130 ± 11", "unit": "revertants/plate"}, {"measurement": "Number of His^+ revertants/plate", "setting": "TA97; TA97 −S, 10 μg/plate", "result": "160 ± 16", "unit": "revertants/plate"}, {"measurement": "Number of His^+ revertants/plate", "setting": "TA97; TA97 −S, 100 μg/plate", "result": "150 ± 16", "unit": "revertants/plate"}, {"measurement": "carcinogenic and mutagenic action", "setting": "[4]", "result": "no carcinogenic and mutagenic action"}]}]}
